This note sets out measurements from PMC11345841, “Exploring 2-Sulfonylpyrimidine Warheads as Acrylamide Surrogates for Targeted Covalent Inhibition: A BTK Story” (Journal of Medicinal Chemistry, 2024).

The structures appear in SMILES notation. Read-outs that look alike come from different tables or passages of the source.

One test has as its system BTK Y223 phosphorylation. Put plainly: Immunoblotting, anti-IgM-induced signaling in OCI-LY7 cells. Conditions: 500 nM, 1 h.
For another test, the target named is T1, CTK (Homo sapiens, UniProt P42679).
T1 construct: purchased Eurofins DiscoverX KINOMEscan (scanTK)
T1 sequence (P42679 1-507): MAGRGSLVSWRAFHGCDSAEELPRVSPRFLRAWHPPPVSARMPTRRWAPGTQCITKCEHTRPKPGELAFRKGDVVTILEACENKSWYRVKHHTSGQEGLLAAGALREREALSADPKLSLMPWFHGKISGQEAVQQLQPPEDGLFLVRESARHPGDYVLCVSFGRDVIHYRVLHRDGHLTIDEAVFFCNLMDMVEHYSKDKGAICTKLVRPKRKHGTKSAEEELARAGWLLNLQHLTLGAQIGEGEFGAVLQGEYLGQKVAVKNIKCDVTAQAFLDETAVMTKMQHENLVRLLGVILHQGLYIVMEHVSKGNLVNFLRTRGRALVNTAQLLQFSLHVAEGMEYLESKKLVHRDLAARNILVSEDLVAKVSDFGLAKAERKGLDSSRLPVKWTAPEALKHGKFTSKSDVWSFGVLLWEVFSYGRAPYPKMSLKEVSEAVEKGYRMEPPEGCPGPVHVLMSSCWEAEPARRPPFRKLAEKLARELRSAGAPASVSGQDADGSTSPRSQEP
Put plainly: KINOMEscan ScanTK. It is filed as binding.

For the next test, the system named is FLT3(ITD,D835V). Briefly: KINOMEscan ScanTK. It is filed as binding.
The target of a further test is T2, DDR1 (Homo sapiens, UniProt Q08345).
T2 construct: purchased Eurofins DiscoverX KINOMEscan (scanTK)
T2 sequence (Q08345 19-913): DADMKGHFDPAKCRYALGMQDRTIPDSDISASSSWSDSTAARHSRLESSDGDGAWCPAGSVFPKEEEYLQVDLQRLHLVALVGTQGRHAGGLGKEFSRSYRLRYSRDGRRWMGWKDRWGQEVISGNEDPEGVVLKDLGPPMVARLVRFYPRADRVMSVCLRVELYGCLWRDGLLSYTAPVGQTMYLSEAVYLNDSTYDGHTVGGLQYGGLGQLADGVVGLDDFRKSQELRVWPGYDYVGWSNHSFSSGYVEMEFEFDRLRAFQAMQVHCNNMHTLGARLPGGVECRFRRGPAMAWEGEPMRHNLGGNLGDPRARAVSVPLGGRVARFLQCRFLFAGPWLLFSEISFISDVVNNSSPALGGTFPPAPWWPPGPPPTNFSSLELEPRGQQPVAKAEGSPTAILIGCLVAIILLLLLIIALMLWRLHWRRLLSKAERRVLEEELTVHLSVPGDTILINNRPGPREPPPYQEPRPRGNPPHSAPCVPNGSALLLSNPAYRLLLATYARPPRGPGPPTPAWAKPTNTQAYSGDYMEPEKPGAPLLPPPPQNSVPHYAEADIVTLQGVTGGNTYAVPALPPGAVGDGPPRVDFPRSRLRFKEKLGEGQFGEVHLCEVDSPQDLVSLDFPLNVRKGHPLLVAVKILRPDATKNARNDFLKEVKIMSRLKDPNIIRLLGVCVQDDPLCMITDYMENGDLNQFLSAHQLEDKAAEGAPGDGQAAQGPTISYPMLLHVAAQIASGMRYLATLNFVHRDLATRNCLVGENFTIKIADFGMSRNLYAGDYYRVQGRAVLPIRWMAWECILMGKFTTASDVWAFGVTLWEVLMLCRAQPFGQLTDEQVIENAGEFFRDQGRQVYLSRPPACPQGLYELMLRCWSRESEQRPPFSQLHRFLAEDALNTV
Put plainly: KINOMEscan ScanTK. It is filed as binding.

A further test has as its target T3, FLT3 (Homo sapiens, UniProt P36888).
T3 construct: purchased Eurofins DiscoverX KINOMEscan (scanTK)
T3 sequence (P36888 27-993): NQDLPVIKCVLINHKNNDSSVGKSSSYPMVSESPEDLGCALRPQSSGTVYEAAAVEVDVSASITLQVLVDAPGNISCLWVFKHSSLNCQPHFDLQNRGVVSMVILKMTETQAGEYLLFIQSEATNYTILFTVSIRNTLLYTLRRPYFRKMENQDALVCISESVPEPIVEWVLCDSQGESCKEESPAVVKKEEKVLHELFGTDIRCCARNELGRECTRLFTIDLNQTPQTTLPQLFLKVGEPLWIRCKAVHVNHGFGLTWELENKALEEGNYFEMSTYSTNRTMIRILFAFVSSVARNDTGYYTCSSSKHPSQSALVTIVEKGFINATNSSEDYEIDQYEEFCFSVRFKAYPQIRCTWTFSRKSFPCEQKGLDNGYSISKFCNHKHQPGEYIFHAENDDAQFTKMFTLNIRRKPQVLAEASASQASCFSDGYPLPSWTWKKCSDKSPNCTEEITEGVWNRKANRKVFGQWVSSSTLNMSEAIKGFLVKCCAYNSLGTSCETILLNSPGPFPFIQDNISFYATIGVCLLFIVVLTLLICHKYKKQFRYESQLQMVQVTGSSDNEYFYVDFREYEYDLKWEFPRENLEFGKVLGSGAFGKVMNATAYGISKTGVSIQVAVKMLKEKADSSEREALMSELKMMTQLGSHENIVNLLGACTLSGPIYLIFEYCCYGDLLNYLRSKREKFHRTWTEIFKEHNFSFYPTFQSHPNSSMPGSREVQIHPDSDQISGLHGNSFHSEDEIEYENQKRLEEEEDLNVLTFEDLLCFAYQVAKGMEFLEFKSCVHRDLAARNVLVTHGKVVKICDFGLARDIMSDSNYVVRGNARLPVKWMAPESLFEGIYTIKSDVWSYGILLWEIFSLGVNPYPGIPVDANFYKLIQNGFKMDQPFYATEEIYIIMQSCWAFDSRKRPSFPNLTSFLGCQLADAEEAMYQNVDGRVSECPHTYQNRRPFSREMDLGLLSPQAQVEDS
Put plainly: KINOMEscan ScanTK. It is filed as binding.

Another test concerns the target T4, FER (Homo sapiens, UniProt P16591).
T4 construct: purchased Eurofins DiscoverX KINOMEscan (scanTK)
Briefly: KINOMEscan ScanTK. It is filed as binding.

The next test concerns the target T5, MET(M1250T) (Homo sapiens, UniProt P08581, M1250T).
T5 construct: purchased Eurofins DiscoverX KINOMEscan (scanTK)
Briefly: KINOMEscan ScanTK. It is filed as binding.

A further test deals with T6, LTK (Homo sapiens, UniProt P29376).
T6 construct: purchased Eurofins DiscoverX KINOMEscan (scanTK)
T6 sequence (P29376 17-864): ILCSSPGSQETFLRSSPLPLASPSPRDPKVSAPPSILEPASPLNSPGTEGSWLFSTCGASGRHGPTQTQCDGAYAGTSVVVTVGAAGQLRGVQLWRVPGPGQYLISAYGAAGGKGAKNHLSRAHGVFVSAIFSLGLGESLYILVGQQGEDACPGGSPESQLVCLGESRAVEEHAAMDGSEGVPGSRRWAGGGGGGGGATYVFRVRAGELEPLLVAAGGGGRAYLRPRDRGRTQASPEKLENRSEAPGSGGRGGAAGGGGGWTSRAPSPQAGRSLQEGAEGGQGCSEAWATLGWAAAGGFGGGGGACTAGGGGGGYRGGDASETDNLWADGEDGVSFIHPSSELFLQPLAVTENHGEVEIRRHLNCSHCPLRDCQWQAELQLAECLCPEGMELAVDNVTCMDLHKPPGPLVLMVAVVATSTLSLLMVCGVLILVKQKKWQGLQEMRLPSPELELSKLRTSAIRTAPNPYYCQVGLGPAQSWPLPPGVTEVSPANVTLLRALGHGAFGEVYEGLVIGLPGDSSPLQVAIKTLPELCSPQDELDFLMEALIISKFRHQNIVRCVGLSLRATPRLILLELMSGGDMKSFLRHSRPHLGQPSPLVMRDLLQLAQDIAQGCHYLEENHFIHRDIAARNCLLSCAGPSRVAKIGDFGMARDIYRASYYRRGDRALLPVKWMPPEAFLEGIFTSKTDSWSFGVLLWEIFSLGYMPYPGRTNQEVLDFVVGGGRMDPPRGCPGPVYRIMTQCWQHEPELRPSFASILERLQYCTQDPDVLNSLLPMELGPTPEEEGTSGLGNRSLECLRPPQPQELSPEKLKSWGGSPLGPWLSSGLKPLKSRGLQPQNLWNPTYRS
Briefly: KINOMEscan ScanTK. It is filed as binding.

A further test concerns the target T7, FRK (Homo sapiens, UniProt P42685).
T7 construct: purchased Eurofins DiscoverX KINOMEscan (scanTK)
Put plainly: KINOMEscan ScanTK. It is filed as binding.

Another test addresses T8, INSR (Homo sapiens, UniProt P06213).
T8 construct: purchased Eurofins DiscoverX KINOMEscan (scanTK)
Briefly: KINOMEscan ScanTK. It is filed as binding.

Test [1] deals with T9, JAK3(JH1domain-catalytic) (Homo sapiens, UniProt P52333).
T9 construct: JAK3(JH1domain-catalytic); purchased Eurofins DiscoverX KINOMEscan (scanTK)
T9 sequence (P52333 822-1124 limits assumed): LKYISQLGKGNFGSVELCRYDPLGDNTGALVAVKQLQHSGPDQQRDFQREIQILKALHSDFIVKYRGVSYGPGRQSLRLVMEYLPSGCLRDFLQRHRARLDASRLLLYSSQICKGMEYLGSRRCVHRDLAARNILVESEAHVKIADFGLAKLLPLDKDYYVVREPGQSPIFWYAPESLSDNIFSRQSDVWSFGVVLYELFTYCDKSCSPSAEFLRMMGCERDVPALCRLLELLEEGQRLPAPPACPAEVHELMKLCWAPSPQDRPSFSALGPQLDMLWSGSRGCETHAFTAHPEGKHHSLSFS
Put plainly: KINOMEscan ScanTK. It is filed as binding. The following applies: for remaining binding at 1 µM: JAK3(JH1domain-catalytic).

The target in the next test is T10, ROS1 (Homo sapiens, UniProt P08922).
T10 construct: purchased Eurofins DiscoverX KINOMEscan (scanTK)
T10 sequence (P08922 28-2347): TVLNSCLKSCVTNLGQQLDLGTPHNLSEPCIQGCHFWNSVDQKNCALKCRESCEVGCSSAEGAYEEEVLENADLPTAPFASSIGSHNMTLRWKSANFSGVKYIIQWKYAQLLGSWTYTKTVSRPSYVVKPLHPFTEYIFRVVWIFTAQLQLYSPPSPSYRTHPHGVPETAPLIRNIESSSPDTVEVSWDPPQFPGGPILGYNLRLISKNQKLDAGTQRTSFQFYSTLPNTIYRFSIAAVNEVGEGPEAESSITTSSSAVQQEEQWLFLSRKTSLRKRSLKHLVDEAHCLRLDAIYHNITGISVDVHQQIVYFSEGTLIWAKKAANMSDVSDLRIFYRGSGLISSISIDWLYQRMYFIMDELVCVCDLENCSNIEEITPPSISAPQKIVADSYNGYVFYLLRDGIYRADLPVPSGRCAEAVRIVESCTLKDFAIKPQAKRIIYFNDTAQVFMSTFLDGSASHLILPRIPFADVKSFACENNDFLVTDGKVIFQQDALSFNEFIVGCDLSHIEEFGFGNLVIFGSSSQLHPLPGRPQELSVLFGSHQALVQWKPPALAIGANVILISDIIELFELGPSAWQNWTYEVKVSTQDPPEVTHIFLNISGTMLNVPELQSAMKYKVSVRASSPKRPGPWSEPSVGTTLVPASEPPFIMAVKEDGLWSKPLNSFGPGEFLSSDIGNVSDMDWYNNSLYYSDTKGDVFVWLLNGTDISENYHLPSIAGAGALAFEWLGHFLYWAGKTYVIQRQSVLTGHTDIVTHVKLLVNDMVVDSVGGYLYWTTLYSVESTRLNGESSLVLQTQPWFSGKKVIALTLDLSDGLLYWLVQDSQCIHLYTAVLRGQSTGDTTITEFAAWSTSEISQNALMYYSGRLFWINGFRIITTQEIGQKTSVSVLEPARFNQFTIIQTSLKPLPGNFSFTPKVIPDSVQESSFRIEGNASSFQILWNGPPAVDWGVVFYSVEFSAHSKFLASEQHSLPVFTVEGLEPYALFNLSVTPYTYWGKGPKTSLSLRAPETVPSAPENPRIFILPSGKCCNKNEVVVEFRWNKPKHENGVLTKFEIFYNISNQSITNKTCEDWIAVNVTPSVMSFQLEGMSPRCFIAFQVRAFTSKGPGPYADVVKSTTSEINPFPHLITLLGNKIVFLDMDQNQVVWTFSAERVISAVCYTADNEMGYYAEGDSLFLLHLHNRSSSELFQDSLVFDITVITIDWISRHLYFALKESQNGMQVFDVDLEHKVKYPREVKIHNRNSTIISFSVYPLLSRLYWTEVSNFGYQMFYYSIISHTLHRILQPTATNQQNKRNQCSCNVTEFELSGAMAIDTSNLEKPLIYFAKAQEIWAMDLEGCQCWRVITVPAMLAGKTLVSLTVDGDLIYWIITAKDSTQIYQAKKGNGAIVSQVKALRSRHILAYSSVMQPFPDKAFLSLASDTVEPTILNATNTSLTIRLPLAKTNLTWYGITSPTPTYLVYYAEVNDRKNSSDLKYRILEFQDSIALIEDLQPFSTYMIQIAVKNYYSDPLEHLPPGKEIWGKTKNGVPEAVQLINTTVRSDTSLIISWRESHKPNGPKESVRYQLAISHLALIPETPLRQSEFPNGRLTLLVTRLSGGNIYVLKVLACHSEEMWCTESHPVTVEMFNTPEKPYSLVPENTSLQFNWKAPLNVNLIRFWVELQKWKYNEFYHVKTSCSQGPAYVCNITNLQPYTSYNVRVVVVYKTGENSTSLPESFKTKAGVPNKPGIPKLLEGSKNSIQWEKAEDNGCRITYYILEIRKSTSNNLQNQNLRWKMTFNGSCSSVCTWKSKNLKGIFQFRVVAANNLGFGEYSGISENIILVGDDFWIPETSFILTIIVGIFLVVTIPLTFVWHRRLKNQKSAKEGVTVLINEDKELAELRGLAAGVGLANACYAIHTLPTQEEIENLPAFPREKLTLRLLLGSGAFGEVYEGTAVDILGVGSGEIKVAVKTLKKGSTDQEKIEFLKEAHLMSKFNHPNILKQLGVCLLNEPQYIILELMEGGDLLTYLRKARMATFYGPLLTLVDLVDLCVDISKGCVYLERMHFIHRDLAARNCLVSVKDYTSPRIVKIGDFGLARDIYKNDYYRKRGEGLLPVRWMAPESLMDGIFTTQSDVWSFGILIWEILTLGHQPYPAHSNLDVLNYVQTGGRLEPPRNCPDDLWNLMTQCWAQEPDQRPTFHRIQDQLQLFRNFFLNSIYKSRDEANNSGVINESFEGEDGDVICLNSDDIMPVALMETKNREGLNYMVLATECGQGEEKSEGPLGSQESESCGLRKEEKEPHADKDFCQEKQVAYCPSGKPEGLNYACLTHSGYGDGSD
Put plainly: KINOMEscan ScanTK. It is filed as binding.

T7 sequence (P42685 whole entry): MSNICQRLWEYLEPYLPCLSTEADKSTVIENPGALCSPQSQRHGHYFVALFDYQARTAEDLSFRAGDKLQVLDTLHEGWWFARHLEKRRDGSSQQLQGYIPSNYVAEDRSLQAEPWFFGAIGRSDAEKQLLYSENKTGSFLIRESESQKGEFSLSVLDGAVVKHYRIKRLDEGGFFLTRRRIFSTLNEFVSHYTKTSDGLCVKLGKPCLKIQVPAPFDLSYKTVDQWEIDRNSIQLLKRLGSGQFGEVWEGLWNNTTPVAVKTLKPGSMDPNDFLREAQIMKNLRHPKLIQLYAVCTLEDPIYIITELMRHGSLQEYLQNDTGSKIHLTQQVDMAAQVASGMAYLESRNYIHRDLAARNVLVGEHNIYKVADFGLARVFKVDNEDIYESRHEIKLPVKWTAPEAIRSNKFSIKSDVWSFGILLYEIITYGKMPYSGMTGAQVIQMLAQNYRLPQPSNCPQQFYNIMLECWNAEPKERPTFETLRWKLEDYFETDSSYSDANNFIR
Method for BTK Y223 phosphorylation: We also investigated the effects of the compounds (at 500 nM) on sIgM signaling by analyzing the phosphorylation status of key signaling molecules activated downstream of the BCR.
Secondary antibodies were horseradish peroxidase-conjugated antibodies (GE Healthcare). Images were captured using the Amersham ImageQuant 800 System and quantified using ImageJ (http://imagej.nih.gov/ij/). Expression of phosphorylated proteins was normalized to the equivalent total protein with values for DMSO/anti-IgM set to 100%.

One may read the inhibition as the percentage by which the read-out fell short of the control. Regarding `C=CC(=O)N1CCC[C@@H](n2nc(-c3ccc(Oc4ccccc4)cc3)c3c(N)ncnc32)C1` [Compound 1g, Ibrutinib, reference compound], the “anti-IgM-induced BTK Y223 phosphorylation” value in the test with BTK Y223 phosphorylation is listed as “strongly inhibited”. Moreover, the remaining binding at 1 µM on CTK (@1000nM, read-out: %Control) worked out at 80%; on CTK (read-out: %Control @1000nM), 80%; at DDR1 (@1000nM, read-out: %Control), 78%; at DDR1 (read-out: %Control @1000nM) it was 78%; on FLT3 (@1000nM, read-out: %Control), 33%; on FLT3 (read-out: %Control @1000nM), 33%. Moreover, the remaining binding at 1 µM was found to be 100% at FER (@1000nM, read-out: %Control); 100% on FER (read-out: %Control @1000nM); 96% at MET(M1250T) (@1000nM, read-out: %Control); 96% at MET(M1250T) (read-out: %Control @1000nM); 81% on LTK (@1000nM, read-out: %Control); 81% on LTK (read-out: %Control @1000nM). Also, the remaining binding at 1 µM on FRK (@1000nM, read-out: %Control) came to 9.3%; at FRK (read-out: %Control @1000nM) it was 9.3%; on INSR (@1000nM, read-out: %Control), 100%; on INSR (read-out: %Control @1000nM), 100%; in [1] (@1000nM, read-out: %Control), 5.5%; in [1] (read-out: %Control @1000nM), 5.5%. Besides, the remaining binding at 1 µM turned out to be 97% on ROS1 (@1000nM, read-out: %Control) and 97% at ROS1 (read-out: %Control @1000nM). In addition, the “%Control @1000nM” value in the test with FLT3(ITD,D835V) was 77%. In the test on FLT3(ITD,D835V) (@1000nM), the “%Control” value stood at 77%. In test [1] (ScanTK, 1 μM), this compound displayed an inhibition at 1 µM of 95%.
